Measured values reported in patent US9434719B2, “3-pyrimidin-4-yl-oxazolidin-2-ones as inhibitors of mutant IDH” (NOVARTIS AG, priority 2013, dated 2016).
Counter-ions that a name gives are not always drawn.

How the values were obtained:
Assay type in all cases: in vitro ADME
[1] = Metabolic stability in liver microsomes, Method II, mouse; details: NADPH + UDPGA; for microsomal CLint: 1 μM test compound
Procedure: (§1) Determination of Metabolic Stability in Liver Microsomes—Method II
(§2) The in vitro metabolic stability assay was performed in a 96-deep-well plate with incubation at 37° C. 10 mM DMSO stock solution of the test compound was diluted 1:20 in acetonitrile, followed by an additional 1:10 dilution in 100 mM potassium phosphate buffer (KPi) to yield a final reaction concentration of 1 μM. Immediately prior to the start of the experiment, respective animal or human liver microsomes (male Sprague-dawley rat, male CD-1 mouse, or pooled human liver microsomes) were diluted in 100 mM KPi to 1.25 mg/mL liver microsomal protein. 290 μL of cofactor solution (1.7 mM NADPH, 1.7 mM UDPGA, 3.4 mM MgCl in 100 mM KPi) was added to 200 μL of microsomal protein for a final volume of 490 μL. The reaction was initiated by adding 10 μL of the 50 μM test solution to 490 μL of microsomal protein for a final volume 500 μL enzyme-compound mixture.
(§3) At 0, 5, 15 and 30 minute time points in the reaction, reaction aliquots (75 μL) were removed and the reactions were terminated by the addition of 50:50 acetonitrile/methanol solution (75 μL) containing a mass spectrometry internal standard (0.5 μM glyburide). The samples were centrifuged at 4000 RPM for 10 minutes. Supernatants (15 μL aliquots) were transferred to a new plate where each well contains 90 μL of deionized water. The supernatants solution were analyzed by UPLC/MS/MS for quantitation of parent remaining compound under multiple reactions monitoring mode (MRM) in positive mode. The percentage of compound remaining, relative to 0 minutes, was used to estimate in vitro elimination-rate constant (k) which was used to calculate in vitro metabolic clearance rates.
(§4) Analysis of the samples was performed on an ultra-performance liquid chromatography-tandem mass spectrometry (UPLC/MS/MS) system consisting of an AB Sciex Qtrap 5500 mass spectrometer, AB Sciex Turbo V ion source, Waters Acquity Sample Organizer, Waters Acquity Column manager, Waters Acquity Sample manager, and a Waters Acquity Binary Solvent Manager. Chromatographic separation of analyte and internal standard was achieved using a reverse phase C-18 column (50×2.1 mm, 1.7 μm, Acquity UPLC BEH C-18) with the following UPLC mobile phases and elution gradient: […]
(§5) UPLC mobile phase A: 0.25% formic acid in 5% methanol; mobile phase B: 0.25% formic acid in […].
(§6) The injection volume was 5 μL. Compounds were detected using Analyst 1.5.1 software which collects intensity data for all fragments related to the molecular weight of the test compound. After collection of the raw data, the software identifies and integrates the peak of the strongest intensity.
(§7) Each microsomal elimination rate, k, was based on a 4-point elimination curve tested in duplicates. LC-MS/MS raw data for a reaction plate was returned as integrated analyte peak areas for the test compound and internal standard used in the quench solution for the reaction to enable use of analyte:internal standard peak area ratios (PARs) for all data comparisons. The reaction time point (e.g. 0, 5, 15 and 30 minutes) was plotted versus the natural logarithm of percent test compound remaining relative to 0 minutes (based on relative PAR). The slope of this clearance plot, k, was used to calculate the in vitro half-life.
(§8) [formula] The intrinsic clearance value, CLint (expressed as μL/min/mg microsomal protein) calculation is shown below:
(§9) [formula] Where V=the incubation volume (mL) and M=the microsomal protein content in the incubation (mg)

[2] = Metabolic stability in liver microsomes, Method II, rat; details: 1 μM test compound, NADPH + UDPGA
Procedure: The in vitro metabolic stability assay was performed in a 96-deep-well plate with incubation at 37° C. 10 mM DMSO stock solution of the test compound was diluted 1:20 in acetonitrile, followed by an additional 1:10 dilution in 100 mM potassium phosphate buffer (KPi) to yield a final reaction concentration of 1 μM. […] 290 μL of cofactor solution (1.7 mM NADPH, 1.7 mM UDPGA, 3.4 mM MgCl in 100 mM KPi) was added to 200 μL of microsomal protein for a final volume of 490 μL. The reaction was initiated by adding 10 μL of the 50 μM test solution to 490 μL of microsomal protein for a final volume 500 μL enzyme-compound mixture.
UPLC mobile phase A: 0.25% formic acid in 5% methanol; mobile phase B: 0.25% formic acid in 95% water.

[3] = Metabolic stability in liver microsomes, Method II, human; details: 1 μM test compound, NADPH + UDPGA
Procedure: as §1, §2, §3, §4, §5, §6, §7, §8, §9

C[C@H](Nc1nccc(N2C(=O)OC[C@@H]2CF)n1)c1cn(-c2ccc(F)cc2)cn1 [471 as TFA salt]
microsomal CLint [1]: 14.8 µL/min/mg
microsomal CLint [2]: < 7.7 µL/min/mg
microsomal CLint [3]: < 7.7 µL/min/mg

C[C@H](Nc1ncc(F)c(N2C(=O)OC[C@@H]2CF)n1)c1cn(-c2ccc(F)c(Cl)c2)cn1 [472 as TFA salt]
microsomal CLint [1]: 45.6 µL/min/mg
microsomal CLint [2]: 12 µL/min/mg
microsomal CLint [3]: < 7.7 µL/min/mg

C[C@H](Nc1nccc(N2C(=O)OC[C@@H]2CF)n1)c1cn(-c2ccc(F)c(F)c2)cn1 [474 as TFA salt]
microsomal CLint [1]: < 7.7 µL/min/mg
microsomal CLint [2]: 24.8 µL/min/mg
microsomal CLint [3]: < 7.7 µL/min/mg

C[C@H](Nc1nccc(N2C(=O)OC[C@@H]2[C@H](C)F)n1)c1cn(-c2ccc(Cl)cc2F)cn1 [476 as TFA salt]
microsomal CLint [1]: 111 µL/min/mg
microsomal CLint [2]: 344 µL/min/mg
microsomal CLint [3]: 41.4 µL/min/mg

C[C@H](Nc1nccc(N2C(=O)OC[C@@H]2[C@H](C)F)n1)c1cn(-c2ccc(F)cc2F)cn1 [478 as TFA salt]
microsomal CLint [1]: 55.3 µL/min/mg
microsomal CLint [2]: 219 µL/min/mg
microsomal CLint [3]: 10.9 µL/min/mg

C[C@H](Nc1ncc(F)c(N2C(=O)OC[C@@H]2[C@H](C)F)n1)c1cn(-c2ccc(F)cc2F)cn1 [479 as TFA salt]
microsomal CLint [1]: 116 µL/min/mg
microsomal CLint [2]: 173 µL/min/mg
microsomal CLint [3]: 11.9 µL/min/mg

C[C@H](Nc1ncc(F)c(N2C(=O)OC[C@@H]2[C@H](C)F)n1)c1cn(-c2ccc(Cl)cc2F)cn1 [Example 477, (R)-3-(2-(((S)-1-(1-(4-chloro-2-fluorophenyl)-1H-imidazol-4-yl)ethyl)amino)-5-fluoropyrimidin-4-yl)-4-((S)-1-fluoroethyl)oxazolidin-2-one]
microsomal CLint at 1 μM ([1]; male, CD-1, 1 μM test compound): 167 µL/min/mg
microsomal CLint at 1 μM ([2]; male, Sprague-Dawley): 438 µL/min/mg
microsomal CLint at 1 μM ([3]; pooled liver microsomes): 30.4 µL/min/mg
